Reference: US20260132165A1, “MODIFIED NUCLEOSIDE ANALOGUE AND USE THEREOF, AND NUCLEOSIDE ANALOGUE-CONTAINING DOUBLE-STRANDED OLIGONUCLEOTIDE AND USE THEREOF” (RIGERNA THERAPEUTICS (BEIJING) CO., LTD., priority 2023, published 2026)
Several values for one entry are separate records, joined by “and”; a condition that tells them apart may be missing. Identical values can stand only once. Strand notation (5' to 3'): a small letter for the sugar, then the base; units joined by * are phosphorothioate-linked, units joined directly phosphodiester-linked; [ ] holds rarer units or linkages, { } end groups; capitals alone tell only the bases. [NM031] = nucleoside analogue NM031 of the disclosure, C16 lipid conjugate (uridine-based); {VP} = (thio)vinylphosphonate on the antisense 5' nucleotide, as listed; m = 2'-O-methyl; f = 2'-fluoro

What was measured:
[1] = system: target gene SOD1; test: Test Example 5: inhibitory activity of lipid conjugated siRNA sequences on SOD1 by intrathecal administration to rats; format: in vivo, SD rats; parameters: key to Lumbar segmen Mean value of inhibition rate / Cortex Mean value of inhibition rate / Thoracic segment Mean value of inhibition rate / Cervical segment Mean value of inhibition rate / Cerebellum Mean value of inhibition rate / Hippocampus Mean value of inhibition rate: inhibition rate of SOD1 mRNA, calculated by the ΔΔCt method; settings: D7
Procedure: 6-8 Week-old SD rats were randomly grouped by body weight. Rats in each group were administered with siRNA by intrathecal administration, with an administration dose of 900 μg per rat. Injection was administered from rat spinal cord L5-L6, with an administration volume of 40 μL. Needle was retained for 2 min after completion of injection, and then slowly withdrawn. PBS control group was administered with the same volume of siRNA conjugate-free PBS solution. The day of administration was recorded as 0 day (D0), and the rats were sacrificed at observation point after administration. Different segments of spinal cord and different regions of brain were respectively taken and stored in the RNAlater.
(§1) RNA extraction: the above tissue samples were taken out from the RNAlater, and smashed for 60 s in Tissuelyser type II full-automatic tissue homogenizer, and total RNAs of various tissue samples were extracted using the full-automatic nucleic acid extraction instrument and the nucleic acid extraction kit from Zhejiang Hanwei Science and Technology Co. Ltd. according to methods described in instructions.
(§2) Reverse transcription reaction: 1 μg of the extracted total RNAs of the tissue samples were taken, and configured into 20 μL of reverse transcription system according to a method described in kit instructions by using a reverse transcription kit (Reverse Transcription System, A3500) from Promega Corporation and selecting Oligo (dT)15 reverse transcription primers, and the reverse transcription reaction was completed. After the reaction was ended, 80 μL of RNase-Free water was added into the reverse transcription system to provide cDNA solution for Real-time PCR detection.
(§3) Real-time PCR detection: 20 μL of Real-time PCR reaction system per PCR detection well was configured according to a method described in kit instructions using SYBR™ Select Master Mix (Catalog number: 4472908) reagent from ABI company. Each detection system contained 5 μL of cDNA template obtained from the above reverse transcription reaction, 10 μL of SYBR™ Select Master Mix, 0.5 μL of 10 μM upstream primers, 0.5 μL of 10 μM downstream primers, and 4 μL of RNase-Free H2O. The configured reaction system was subjected to Real-time PCR amplification on ABI StepOnePlus PCR instrument by a three-step method, wherein an amplification procedure was pre-denaturation at 95° C. for 10 min, then denaturation at 95° C. for 30 s, annealing at 60° C. for 30 s, and extension at 72° C. for 30 s; and processes of denaturation, annealing, and extension were repeated for 40 cycles. Gene expression differences were calculated by the ΔΔCt method after completion of the procedure.
In the real-time fluorescence quantitative PCR method, relative quantitative calculation of remaining expression level and inhibition rate of gene mRNA of interest in various test groups was performed by the ΔΔCt method, and the calculation method is as follows:
The present example evaluated, by an evaluation method for inhibitory activity on a target gene by intrathecal administration to rats, the inhibitory activity of siRNA sequence RZ899060 with the sense strand with the NM031 conjugation at Position 4 and vector-free siRNA sequence RZ899056, and Uhd conjugated siRNA reference sequence RZ899055 on the target gene SOD1 of interest in spinal cord and brain of rats.
6-8 Week-old SD rats were randomly grouped by body weight, 5 per group, 4 groups in total. Rats in each group were dosed with the above siRNA conjugates by intrathecal administration, with an administration dose of 900 μg per rat, and an administration volume of 40 μL. PBS control group was administered with the same volume of siRNA conjugate-free PBS solution. The day of administration was recorded as 0 day (D0), and the rats were sacrificed on D7 after administration. […]

[2] = system: target gene SOD1; test: Test Example 3: inhibitory activity of lipid conjugated siRNA sequences on SOD1 by lateral ventricle administration to mice; format: in vivo, C57BL/6j mice; settings: 200 μg per mouse, D5
Procedure: 6-8 Week-old C57BL/6j mice were randomly grouped by body weight. Mice in each group were administered with siRNA by lateral ventricle administration, with an administration dose per mouse depending on a specific test. Taking Bregma in mouse brain as point 0 (origin), coordinates of right ventricle were found using the cerebral stereotaxic apparatus and position was marked on surface of skull (position of lateral ventricle was AP (anteroposterior, bregma anterior and posterior): −0.58 mm, ML (mediolateral, left and right of middle raphe): −1.2 mm, DV (dorsoventral, up and down cerebral dura mater plane): −2.2 mm). A dental electric drill was used to drill in the skull above a position of interest, and then medicament was injected into the lateral ventricle by a micro-dosing pump, wherein a total injection volume was 5 μL, and injection duration was 10 min. Needle was retained for 5 min after completion of injection, and then slowly withdrawn. Afterwards, needle hole was sealed with biomedical glue, and then head skin was adhered. After animals woke up, the animals were returned back to animal house and further fed. PBS control group was administered with the same volume of siRNA-free PBS solution. The day of administration was recorded as 0 day (D0), and the mice were sacrificed at observation point after the administration. Different parts of brain region were respectively taken and stored in the RNAlater.
as §1, §2, §3
In the real-time fluorescence quantitative PCR method, relative quantitative calculation of remaining expression level and inhibition rate of gene mRNA of interest in various test groups was performed by the ΔΔCt method, and the calculation method is as follows: […]

With “RZ899060: siRNA sequence with the sense strand with the NM031 conjugation at Position 4; SEQ ID NO: 3 / 22 (sense mU*mU*mU[NM031]mAmAfUfCfCmUmCmAmCmUmCmUmAmAmA; antisense {VP}-mU*fU*mUmAmGfAmGmUmGmAmGmGmAfUmUfAmAmAmA*mU*mG)” the “Cerebellum Mean value of inhibition rate” value ([1]; cerebellum, intrathecal, 900 μg per rat) was 55.10, the “Cortex Mean value of inhibition rate” value ([1]; cerebral cortex, intrathecal, 900 μg per rat) was 43.00 and the “activity compared with the reference sequence RZ899055” value ([1]; hippocampus and cortex in the brain region, intrathecal 900 μg per rat) was “substantially comparable”. The “Hippocampus Mean value of inhibition rate” value ([1]; hippocampus, intrathecal, 900 μg per rat) was 47.77, the “activity compared with the Uhd conjugated reference sequence RZ899055” value ([1]; lumbar segment, intrathecal 900 μg per rat) was “substantially comparable” and the “inhibitory activity in the spinal cord segments” value ([1]; lumbar, thoracic and cervical segment, intrathecal 900 μg per rat) was ≥ 80%. The “Cervical segment Mean value of inhibition rate” value ([1]; spinal cord cervical segment, intrathecal, 900 μg per rat) was 83.37, the “Lumbar segmen Mean value of inhibition rate” value ([1]; spinal cord lumbar segment, intrathecal, 900 μg per rat) was 84.24 and the “Thoracic segment Mean value of inhibition rate” value ([1]; spinal cord thoracic segment, intrathecal, 900 μg per rat) was 94.54. For the same substance, the “activity compared with the Uhd conjugated reference sequence RZ899055” value ([1]; thoracic segment and cervical segment of spinal cord, intrathecal 900 μg per rat) was “superior”, the “Cerebellum Mean value of inhibition rate %” value ([2]; cerebellum) was 56.11% and the “Cortex Mean value of inhibition rate %” value ([2]; cortex) was 79.05%. For the same substance, the “Hippocampus Mean value of inhibition rate %” value ([2]; hippocampus) was ≥ 90% and 90.98%.
